Reference: US10391166B2, “Short oligonucleotides as vaccine adjuvants and therapeutic agents” (priority 2013, dated 2019)
“Also recorded” adds a separate entry of the source.

What was measured:
M. tuberculosis [1] = test system: M. tuberculosis; parameters: species or system C57Bl/6 mice; settings: mouse, in vivo
PBMCs = assay type: cell-based
IL-1β = test: Mature IL-1β ELISA in mouse bone marrow derived primary macrophages; assay type: cell-based; settings: alone or with MDP or BCG, caspase blockade with ZVAD-fmk
Procedure: C57Bl/6 mouse bone marrow derived primary macrophages were treated with SB 1A or SB 1B alone, MDP alone or in combination as indicated for 4 hrs. BCG was used for infection for 4 hrs and supernatants collected 18 hr later titrated for mature IL1β using ELISA. Macrophages were first treated with ZVAD-fmk (2 hrs) for caspase blockade followed by activation with SB 1A and SB 1B (4 hrs) and BCG infection (4 hrs). Cytokine was measured 18 hrs later.

bacterial tester strains = test: Bacterial mutation test (screening version, pre-incubation); settings: up to 5000 μg/plate
Procedure: Study design: The test was performed on one occasion only. A subset of the standard tester strains (list strains) was used to evaluate the genotoxic potential of the test article.
The test article was formulated in dimethyl sulfoxide (DMSO) and tested at a maximum concentration of 5000 μg/plate (the standard limit dose for this assay) together with approximate half-log dilutions using the pre-incubation version of the bacterial mutation test. The absence of colonies on sterility check plates confirmed the absence of microbial contamination. The mean revertant colony counts for the vehicle controls were close to or within the laboratory historical control data. Appropriate positive control compounds (+/−S9 mix) induced increases in revertant colony numbers at least twice the concurrent vehicle control levels with the appropriate bacterial strain (1.5× for strain TA 100), confirming the sensitivity of the test system and activity of the S9 mix. […] No precipitation was observed.

[2] = test system: C57Bl/6 mouse bone marrow derived macrophages; assay type: cell-based
[3] = test system: IRF3-luciferase reporter gene; test: IRF3-luciferase reporter induction in HLE A549 cells (primary assay for NOD2 activation); assay type: cell-based, human; settings: 12 h incubation
Procedure: The evaluation of SMNH compounds for NOD2 activation was conducted by primary, secondary, and tertiary assays. In the primary assays, SMNH compounds were tested for the induction of IRF3 expression in HLE A549 cells, which are known to endogenously express NOD2. […] SB 44, a mixture of two isomers Rp and Sp, is a prodrug of SB 40. SB 1B—the Rp isomer of SB 44 and is shown as SB 44-1 in the FIGS. 1-2.
IRF3-luciferase transfected cells were incubated with either DMSO only (UT) or SMNH compounds (μM). Following 12 h incubation, luciferase activity was measured using Dual-Luciferase Reporter Assay System (Promega) according to the manufacturer's protocol. Transfection efficiency was normalized by measuring the expression of renilla Luciferase. Luciferase units (i.e., fold induction) were measured by standard methodology (mean±standard deviation; 3 independent experiments). The results are depicted in FIG. 1.

interferon-β (IFN-β) = test: IFN-β production from human lung epithelial A549 cells; assay type: cell-based
M. tuberculosis [4] = test system: M. tuberculosis; parameters: species or system C57Bl/6 mice; settings: mouse, in vivo; remark: listed apart in the source
MHC-II = assay type: cell-based, mouse
[5] = test system: HFF (human foreskin fibroblasts); test: MTT cytotoxicity assay, HFF cells; assay type: cell-based; settings: 24-hour incubation
Description: (§1) SDS was used as a positive cytotoxic control.

[6] = Bioreversibility of SB 44 in serum; assay type: in vitro ADME
Description: Similar to the serum-mediated conversion of SB 44 to SB 40, in the case of microsomes liver esterases appear to be the major metabolizing enzymes involved in the hydrolytic conversion of SB 44 to SB 40. […] The facile bioconversion of SB 44 to SB 40 in liver and plasma is also consistent with broad substrate specificity of the ubiquitous esterase enzymes.

[7] = test system: peripheral blood mononuclear cells (PBMCs); test: Multiplex assay for 28 cytokines in PBMCs; assay type: cell-based, human; settings: up to 50 μM
Vero = test: MTT cytotoxicity assay, Vero cells; assay type: cell-based; settings: 24-hour incubation
Description: as §1

COC1C(OP(=O)(OCC2OC(n3cnc4c(N)ncnc43)CC2O)SCOC(=O)OC(C)C)C(CO)OC1n1ccc(=O)[nH]c1=O (mixture of isomers) [SB 44]
Mtb counts of lungs (M. tuberculosis [1]): reducing Mtb counts of lungs better than either BCG or MDP+BCG
Mtb counts of spleens (M. tuberculosis [1]): better than BCG vaccine in reducing Mtb counts of spleens
adjuvant efficacy with BCG vaccine against tuberculosis (M. tuberculosis [1]): better than muramyl dipeptide (MDP) as adjuvants
anti-TB T cell function of mice (M. tuberculosis [1]): dramatic increase in anti-TB T cell function of mice
memory precursor T cells (MPECs) (M. tuberculosis [1]): induces better memory precursor T cells (MPECs) than BCG vaccine
tetramer specific CD8 T cells (M. tuberculosis [1]): comparable levels of tetramer specific CD8 T cells
IFN production in the presence of BCG (PBMCs): modest augmentation of IFN production
induction of mature IL-1β (IL-1β): induce IL-1β only in combination with either MDP or intact BCG bacilli
toxicity to the bacteria (background lawn) (bacterial tester strains): non-toxic to the bacteria at the levels tested
genotoxic activity (revertant colony counts) (bacterial tester strains; absence or presence of S9 mix): did not show any evidence of genotoxic activity
antigen presentation (Antigen-85B) in macrophages [2]: enhance antigen presentation in vitro
IRF3 activation (IRF3-luciferase) [3]: induced IRF3 activation
production of IFN-β (interferon-β (IFN-β)): induces production of interferon-β
antigen specific CD8 / memory T cells in lungs of re-challenged mice (M. tuberculosis [4]): boost the magnitude of antigen specific memory T cells; also recorded: induces a robust expansion of antigen specific CD8 T cells
protection against re-challenge of tuberculosis (M. tuberculosis [4]): induce protection against re-challenge of tuberculosis in mice
recall response against re-challenge with tuberculosis (M. tuberculosis [4]): retain the ability to mount a better recall response
surface expression of MHC-II (MHC-II): increase MHC-II in MΦs; also recorded: enhances surface expression of MHC-II
CC50 [5]: > 1000 µM
conversion rates of the individual isomers [6]: almost equal rates
cytokine induction in human PBMC cultures [7]: did not cause cytokine induction
CC50 (Vero): > 1000 µM
